# Results: ChEMBL document CHEMBL5241071, “Covalent Small Molecule Immunomodulators Targeting the Protease Active Site” (J Med Chem, 2021)
# What was measured:
# [1] = target: T1, Neutrophil elastase (Homo sapiens, UniProt P08246); assay: Inhibition of human NE
# T1 sequence (P08246 whole entry): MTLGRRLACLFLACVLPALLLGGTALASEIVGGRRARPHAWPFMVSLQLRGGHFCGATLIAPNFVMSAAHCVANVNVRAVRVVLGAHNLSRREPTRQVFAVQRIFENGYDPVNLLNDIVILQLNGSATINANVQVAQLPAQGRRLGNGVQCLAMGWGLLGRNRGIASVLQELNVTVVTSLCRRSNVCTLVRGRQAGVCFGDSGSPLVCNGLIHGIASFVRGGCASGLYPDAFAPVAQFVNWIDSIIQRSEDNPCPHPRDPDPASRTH
# [2] = target: T2, Granzyme A (Homo sapiens) (UniProt P12544); assay: Inhibition of human recombinant GzmA assessed as Kobs/[I]
# T2 sequence (whole entry): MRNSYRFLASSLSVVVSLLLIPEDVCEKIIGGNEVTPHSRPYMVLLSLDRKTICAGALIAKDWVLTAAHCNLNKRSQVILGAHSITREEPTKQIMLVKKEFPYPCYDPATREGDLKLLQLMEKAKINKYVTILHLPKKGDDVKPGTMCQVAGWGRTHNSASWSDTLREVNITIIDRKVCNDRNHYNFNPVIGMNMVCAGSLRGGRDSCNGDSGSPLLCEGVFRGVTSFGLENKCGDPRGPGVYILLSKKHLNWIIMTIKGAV
kobs/[I] [2] [M⁻¹ s⁻¹],SMILES,IC50 [1] [µM]
–,O=S(=O)(F)Oc1ccccc1S(=O)(=O)F,0.24
94000,N=C(N)SCCOc1oc(=O)c2cc(NC(=O)Nc3ccccc3)ccc2c1Cl,–
